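Assay format: 96-well plates, 48-hour exposure. The concentration for 50% growth inhibition is given as GI50.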 The source made the active and inactive calls. No stated cut-off is given here; in the data, active = GI50 up to about 1.1 µM and inactive = higher.
Key:
Experiment in all cases: NCI anticancer screen, dose series, 48 h
[1] = system: HT-29
[2] = system: KM12
[3] = system: Malme-3M
[4] = system: HCT-15
[5] = system: SR
[6] = system: RPMI-8226
[7] = system: CCRF-CEM
[8] = system: NCI-H522
[9] = system: 786-0
[10] = system: SNB-75
[11] = system: A498
[12] = system: LOX IMVI
[13] = system: U-251
[14] = system: M14
[15] = system: SK-MEL-28
[16] = system: SW-620
[17] = system: SF-539
[18] = system: MDA-MB-231
[19] = system: T47D
[20] = system: MDA-N

SMILES | GI50 [1] | GI50 [2] | GI50 [3] | GI50 [4] [µM] | GI50 [5] | GI50 [6] | GI50 [7] | GI50 [8] | GI50 [9] | GI50 [10] | GI50 [11] | GI50 [12] | GI50 [13] | GI50 [14] | GI50 [15] | GI50 [16] | GI50 [17] | GI50 [18] | GI50 [19] | GI50 [20]
Cc1cc(C(=C2C=CC(=[N+](C)C)C=C2)c2ccc([N+](C)(C)C)cc2)ccc1N(C)C | 5.08 µM (inactive) | 4.66 µM (inactive) | 15.8 µM (inactive) | 33 | 1.62 µM (inactive) | 2.04 µM (inactive) | 2.48 µM (inactive) | 15.9 µM (inactive) | 21.6 µM (inactive) | 2.65 µM (inactive) | 18.5 µM (inactive) | 4.79 µM (inactive) | 5.53 µM (inactive) | 10.4 µM (inactive) | 11.3 µM (inactive) | 5.31 µM (inactive) | 10.8 µM (inactive) | – | – | –
CC(CN(C)C)/C(=N\Nc1ccccc1)c1ccccc1 (centres undefined) | 2.08 µM (inactive) | 0.0826 µM (active) | 10.7 µM (inactive) | 0.0955 | 0.33 µM (active) | 0.366 µM (active) | 0.211 µM (active) | 0.889 µM (active) | 0.499 µM (active) | 13 µM (inactive) | 29.2 µM (inactive) | 0.0456 µM (active) | 1.07 µM (active) | 1.46 µM (inactive) | 2.02 µM (inactive) | 0.142 µM (active) | 0.272 µM (active) | – | – | –
CC(=O)O[C@]1(C)OC(=O)[C@@H](C)N1[N+](=O)[O-] | > 100 µM (inactive) | > 100 µM (inactive) | > 100 µM (inactive) | > 100 | 34.9 µM (inactive) | > 100 µM (inactive) | 72.8 µM (inactive) | > 100 µM (inactive) | > 100 µM (inactive) | 57.1 µM (inactive) | > 100 µM (inactive) | 72.3 µM (inactive) | > 100 µM (inactive) | > 100 µM (inactive) | > 100 µM (inactive) | > 100 µM (inactive) | > 100 µM (inactive) | – | – | –
c1ccc(C2(c3cc4ccccc4[nH]3)OCCO2)nc1 | > 100 µM (inactive) | > 100 µM (inactive) | > 100 µM (inactive) | > 100 | – | – | > 100 µM (inactive) | – | > 100 µM (inactive) | > 100 µM (inactive) | > 100 µM (inactive) | > 100 µM (inactive) | > 100 µM (inactive) | > 100 µM (inactive) | > 100 µM (inactive) | > 100 µM (inactive) | > 100 µM (inactive) | > 100 µM (inactive) | > 100 µM (inactive) | –
NCCOc1ccc(/C(=C(/Cl)c2ccccc2)c2ccccc2)cc1 | 3.14 µM (inactive) | 5.18 µM (inactive) | 9.27 µM (inactive) | 6.55 | 3.21 µM (inactive) | 3.17 µM (inactive) | 7.11 µM (inactive) | 12.4 µM (inactive) | 7.94 µM (inactive) | 11.4 µM (inactive) | 19.1 µM (inactive) | 4.05 µM (inactive) | 10.9 µM (inactive) | 2.26 µM (inactive) | 5.66 µM (inactive) | 4.19 µM (inactive) | 15.3 µM (inactive) | – | – | –
CC(=O)C1CC=C(C)CC1 (centres undefined) | > 100 µM (inactive) | > 100 µM (inactive) | > 100 µM (inactive) | > 100 | > 100 µM (inactive) | > 100 µM (inactive) | > 100 µM (inactive) | > 100 µM (inactive) | > 100 µM (inactive) | > 100 µM (inactive) | > 100 µM (inactive) | > 100 µM (inactive) | > 100 µM (inactive) | > 100 µM (inactive) | > 100 µM (inactive) | > 100 µM (inactive) | > 100 µM (inactive) | – | – | –
O=C1C=CC(=O)C2C1Cc1ccccc1C2c1ccccc1 (centres undefined) | 37.8 µM (inactive) | 51.9 µM (inactive) | 59.4 µM (inactive) | 36.6 | 23.7 µM (inactive) | 22.3 µM (inactive) | 20.3 µM (inactive) | 20.9 µM (inactive) | 38.5 µM (inactive) | 42.7 µM (inactive) | 22.4 µM (inactive) | 41.6 µM (inactive) | 18.2 µM (inactive) | 42.8 µM (inactive) | 97.1 µM (inactive) | 27.7 µM (inactive) | 30.5 µM (inactive) | – | – | –
O=C1Cc2ccccc2CCc2ccsc21 | > 100 µM (inactive) | > 100 µM (inactive) | > 100 µM (inactive) | > 100 | > 100 µM (inactive) | > 100 µM (inactive) | > 100 µM (inactive) | > 100 µM (inactive) | > 100 µM (inactive) | 61.2 µM (inactive) | > 100 µM (inactive) | > 100 µM (inactive) | > 100 µM (inactive) | > 100 µM (inactive) | > 100 µM (inactive) | > 100 µM (inactive) | > 100 µM (inactive) | – | – | –
COC1CC(C)C(OC)C2=CC(=O)C=C(NC(=O)/C(C)=C/C=C\C(C)C(OC(N)=O)/C(C)=C\C(C)C1OC)C2=O (centres undefined) | 0.244 µM (active) | 0.521 µM (active) | 0.334 µM (active) | 1.33 | 0.0682 µM (active) | 0.313 µM (active) | 0.117 µM (active) | 0.0908 µM (active) | 0.902 µM (active) | 0.762 µM (active) | 11.7 µM (inactive) | 0.379 µM (active) | 0.37 µM (active) | 0.589 µM (active) | 0.166 µM (active) | 0.0485 µM (active) | 0.355 µM (active) | – | – | –
Clc1ccccc1C(n1cc(Br)cn1)n1cc(Br)cn1 | 13.8 µM (inactive) | 15.3 µM (inactive) | 17.2 µM (inactive) | > 10 | 18.8 µM (inactive) | 13.6 µM (inactive) | 20.9 µM (inactive) | 71.9 µM (inactive) | > 10 µM (inactive) | 5.81 µM (inactive) | 17.1 µM (inactive) | 17 µM (inactive) | 18.5 µM (inactive) | 16.3 µM (inactive) | 40.7 µM (inactive) | > 10 µM (inactive) | > 10 µM (inactive) | – | – | –
CC(C)NC(=O)OCc1c(COC(=O)NC(C)C)c(-c2ccc(Cl)c(Cl)c2)n2c1CCC2 | 40.9 µM (inactive) | 62.5 µM (inactive) | 47.1 µM (inactive) | 52.7 | 6.37 µM (inactive) | 17.9 µM (inactive) | 26.5 µM (inactive) | > 62.4 µM (inactive) | 20.7 µM (inactive) | 39.4 µM (inactive) | 34 µM (inactive) | 46.8 µM (inactive) | 51.3 µM (inactive) | 35.9 µM (inactive) | 65 µM (inactive) | 21 µM (inactive) | 43.5 µM (inactive) | 84.7 µM (inactive) | 50.5 µM (inactive) | –
Cc1cc(Cc2cc(C)c(NC(=O)C(=O)C3CCC4=C(SC5C=CC=CC5N4)C3=O)c(C(C)C)c2)cc(C(C)C)c1NC(=O)C(=O)C1CCC2=C(SC3C=CC=CC3N2)C1=O (centres undefined) | 58.6 µM (inactive) | 43.3 µM (inactive) | – | 34.9 | 60.8 µM (inactive) | 37.4 µM (inactive) | 46.5 µM (inactive) | 19.9 µM (inactive) | > 100 µM (inactive) | 94.6 µM (inactive) | > 100 µM (inactive) | 96.6 µM (inactive) | 50.1 µM (inactive) | > 100 µM (inactive) | > 100 µM (inactive) | 38 µM (inactive) | 12.5 µM (inactive) | 95.9 µM (inactive) | 29.2 µM (inactive) | –
O=C(CBr)N1CCC2(CC1)SSC1(CCN(C(=O)CBr)CC1)S2 | 1.81 µM (inactive) | 1.7 µM (inactive) | – | 1.44 | 0.178 µM (active) | 0.356 µM (active) | 0.15 µM (active) | – | 0.614 µM (active) | 2.01 µM (inactive) | – | 0.064 µM (active) | 1.59 µM (inactive) | 1.53 µM (inactive) | 2 µM (inactive) | 0.332 µM (active) | 1.68 µM (inactive) | 2.33 µM (inactive) | – | 1.31 µM (inactive)
CCC/C=C\C=C\C1(NS(=O)(=O)c2ccc(C)cc2)CCC(C(C)(C)C)CC1 (centres undefined) | 15.5 µM (inactive) | 16.5 µM (inactive) | 14.9 µM (inactive) | 17.5 | 3.15 µM (inactive) | 7.96 µM (inactive) | 9.1 µM (inactive) | 3.2 µM (inactive) | 10.2 µM (inactive) | 23.4 µM (inactive) | 21.2 µM (inactive) | – | 12.5 µM (inactive) | 13.3 µM (inactive) | – | 17.9 µM (inactive) | 35.7 µM (inactive) | – | – | –
COc1cc(C=O)cc(/C=N/n2c3ccccc3c3ccccc32)c1O | 35.7 µM (inactive) | 35.8 µM (inactive) | 3.52 µM (inactive) | 14.5 | 4.72 µM (inactive) | 5.01 µM (inactive) | 4.09 µM (inactive) | 33.6 µM (inactive) | 11.9 µM (inactive) | 2.79 µM (inactive) | 20.7 µM (inactive) | 14.2 µM (inactive) | 9.04 µM (inactive) | 4.6 µM (inactive) | 5.83 µM (inactive) | 9.73 µM (inactive) | 4.32 µM (inactive) | 17.4 µM (inactive) | > 100 µM (inactive) | –
CC(=O)Nc1ccc2c(c1)C(=O)c1cccc(F)c1-2 | 35.2 µM (inactive) | 0.401 µM (active) | > 100 µM (inactive) | 24.7 | 19.9 µM (inactive) | 38.8 µM (inactive) | 38.6 µM (inactive) | 36.5 µM (inactive) | 71.6 µM (inactive) | 56.2 µM (inactive) | – | 38.2 µM (inactive) | 38.6 µM (inactive) | 50.9 µM (inactive) | > 100 µM (inactive) | 57.3 µM (inactive) | 0.0234 µM (active) | 30.4 µM (inactive) | 24.9 µM (inactive) | –
